The source of these data is patent US7208153B2, “Method for the improvement of neuronal regeneration” (Neuraxo Biopharmaceuticals GmbH, priority 1997, dated 2007).

“Also recorded” adds a separate entry of the source.

The subject of assay [1] is transected postcommissural fornix axons. Kind of assay: Regeneration of transected postcommissural fornix axons across the lesion site (NF immunohistochemistry, anterograde tracing, electron microscopy). Format: in vivo, Wistar rats.
Assay [2] deals with basal membrane formation (collagen IV) in the lesion site. Kind of assay: Lesion-induced basal membrane (collagen IV) deposition after postcommissural fornix transection, immunohistochemistry. Format: in vivo, Wistar rats. The method, then: In an effort to modulate postlesion BM deposition, either polyclonal antibodies against collagen IV (anti-Coll IV; n=14) or the iron chelator a, a′-dipyridyl (DPY; n=9) were injected locally into the lesion center immediately after transection. […] (13) and enhanced procollagen degradation (14). Control animals received a PBS injection (n=9) or were sham operated (n=3). Basal membrane formation was studied in response to antibody and drug treatment using immunohistochemical methods. […] At 2 weeks after lesion+injection only a very small number of Coll-immunreactive structures perpendicular to the tract course had developed (FIG. 1e, f).
Surgery. The left postcommissural fornix of 42 Wistar rats (180–210 g) was transected stereotactically at a distance of about 1 mm proximal to the target, the mammillary body, using a Scouten wire knife as described previously (9). The completeness of transection was confirmed by serial reconstruction of the lesion site for each of the animals. Immediately after transection animals received a topical application (1.6 μl) of either polyclonal antibodies against collagen, IV (anti-Coll IV, Biogenex, 50–100 μg/ml, n=14) or the iron chelator a, a′-dipyridyl (DPY, 1–10 mM, n=9). Substances were pressure injected (injection time 10 min) directly into the lesion site via a micropipette coupled to a microsyringe. Controls received equal amounts of phosphate-buffered saline (n=9) or sham operation (n=3).
Immunohistochemical staining. After a survival time of 4 days (d), 6 d, 2 weeks (w), 4 w and 6 w after surgery brains were removed, frozen in isopentan (−50/−60° C.) and cut into serial sagittal 10 μm thick sections. […]

Assay [3] deals with Na+-dependent action potentials of fornix fibers. Further details: species or system rats.

As for `c1ccc(-c2ccccn2)nc1` [DPY, a, a′-dipyridyl], in assay [1] (6 weeks postsurgery, FIG. 2), the “regeneration of transected fornix fibers across the lesion site (NF-immunohistochemistry)” value is “fibers traverse the former lesion site”. Further, in assay [1] (between 2 and 4 weeks after lesion+injection, immunocytochemical staining), the “elongation of fornix axons into and across the lesion center” value is “large numbers of axons entered and traversed the lesion center”. For the same molecule, in assay [2] (local injection), the “lesion-induced BM deposition” value was “significantly reduced”. Further, the “Coll-immunopositive laminae and blood vessels in the lesion center and the fornix stumps” value in assay [2] (single local injection immediately after transection, anti-Coll IV 80–160 ng or DPY 1.6–16 μmol, all examined survival time points) is “massive and specific reduction”. Further, in assay [2] (two weeks postsurgery, FIG. 1e, f), the “Collagen IV deposition in the lesion site” value is “markedly reduced”.

On to `NC1=N[C@H](O)[C@H]2[C@H]3O[C@]4(O)O[C@@H]([C@@H](O)[C@@]2(N1)[C@@H]4O)[C@]3(O)CO` [Tetrodotoxin], for which the stimulus-evoked extracellular response result in assay [3] was “blocks the stimulus-evoked response; also recorded: blocked”.
